“And” between values parts separate entries of the source, which are not always exact repeats. Equal values may be shown once. Read-outs that look alike come from different tables or passages of the source.
Experiments:
C. albicans ATCC 10231 [1] = test: Agar-invasive hyphal growth (Spider agar assay); assay type: cell-based, Candida albicans; details: compounds at IC50 values, three days at 37 °C
Procedure: Aliquots (2 µL) of a suspension of C. albicans ATCC 10231 (5 × 10^5 cells/mL) were spotted onto medium in triplicate and the morphology of growing colonies was observed following three days of incubation at 37 °C. Spider agar plates without chalcones, containing DMSO, served as the control. The presence of filaments at the colony edges was determined using a light microscope under 10× magnification.

C. albicans ATCC 10231 [2] = test: In vitro susceptibility testing, microdilution broth (EUCAST), C. albicans control strain; assay type: cell-based, Candida albicans; details: Candida albicans; for IC50: ATCC10231, C. albicans ATCC 10231, mean and 95% confidence interval; for inhibition at 100 µM: ATCC10231, C. albicans ATCC 10231, 24 h
Procedure: (§1) The in vitro antifungal activity of the chalcones was evaluated by a microdilution broth method in accordance with the guidelines provided by the EUCAST Edef 7.3 [22]. Briefly, all strains were cultured on Sabauraud dextrose, then inocula, prepared at 0.5 McFarland, were diluted 1:20 in RPMI-1640 medium (Gibco®, ThermoFisher Scientific Inc., Waltham, MA, USA), containing glucose 2%, 0.3% levo-glutamine buffered to pH 7.0 with 0.165 M 3-(N-morpholino)propanesulfonic acid (MOPS) to yield 1-5 × 10^5 cells/mL. A total of 100 µL of the yeast suspension was inoculated in a 96-well microplate and incubated with 100 µL of serially 2-fold dilution of the compound in the range 200–6.25 µM. The following controls were included: yeast suspensions incubated in RPMI-1640 culture medium (positive growth control), or supplemented with dilutions of DMSO, or fluconazole (Sigma-Aldrich, St. Louis, MO, USA) as a commercial drug. To check the background turbidity of reagents and the sterility of the procedure, dilutions of each compound were incubated in RPMI-1640 culture medium, without yeast inoculum. The inoculated plate was incubated at 37 °C for 24 h, and subsequently the optical density at 630 nm was measured by the Multiskan Ascent microplate reader (Thermo Fisher Scientific Inc.). The effectiveness of the compounds was expressed as percent inhibition relative to the positive growth control when the inhibition […] the 50% at 100 µM. The IC50 value was determined by interpolation of the dose–response curves generated by plotting the percentages of growth inhibition, relative to the drug-free control (set to 100% of growth), as a function of the tested concentrations (on a logarithm scale). Statistical analysis was carried out by the nonlinear regression method using GraphPad Prism version 5.0 for Windows (GraphPad Software, San Diego, CA, USA). All assays were performed in triplicate and at least two independent experiments were carried out.

S. clavata = test: In vitro susceptibility testing, S. clavata clinical isolate; assay type: cell-based; details: clinical isolate; read-out: IC50 S. clavata
Text: (§2) The yeasts included in the present study were Candida albicans ATCC 10231 (American Type Culture Collection) and a collection of yeasts recovered from a variety of clinical specimens, i.e., blood, urine, genital swabs, bronchoalveolar lavage, nail specimens, collected at the Microbiology Unit, St. Orsola Malpighi University Hospital, Bologna, Italy. The clinical strain isolates were identified by standard procedures, including colony morphology on chromogenic agar (CHROMagar Candida medium, Becton Dickinson, Heidelberg, Germany) and confirmed by MALDI Biotyper System using matrix-assisted laser desorption ionization–time of flight mass spectrometry (MALDI-TOF MS, Bruker Daltonik, GmbH, Germany).
as §1

C. albicans ATCC 10231 [3] = test: Disruption of preformed mature biofilm (biofilm metabolic activity); assay type: cell-based, Candida albicans; details: compounds added to preformed mature biofilm; statistically significant
C. utilis = test: In vitro susceptibility testing, C. utilis clinical isolate; assay type: cell-based; details: Williopsis jadinii; clinical isolate; read-out: IC50 C. utilis
Text: as §2, §1

C. lusitaniae = test: In vitro susceptibility testing, C. lusitaniae clinical isolate; assay type: cell-based; details: Clavispora lusitaniae; clinical isolate; read-out: IC50 C. lusitaniae
Text: as §2, §1

C. krusei = test: In vitro susceptibility testing, C. krusei clinical isolate; assay type: cell-based; details: Pichia kudriavzevii; clinical isolate; read-out: IC50 C. krusei
Text: as §2, §1

C. tropicalis = test: In vitro susceptibility testing, C. tropicalis clinical isolate; assay type: cell-based; details: Candida tropicalis; clinical isolate; read-out: IC50 C. tropicalis
Text: as §2, §1

C. parapsilosis = test: In vitro susceptibility testing, C. parapsilosis clinical isolate; assay type: cell-based; details: Lodderomyces parapsilosis; clinical isolate; read-out: IC50 C. parapsilosis
Text: as §2, §1

R. mucilaginosa = test: In vitro susceptibility testing, R. mucilaginosa clinical isolate; assay type: cell-based; details: clinical isolate; read-out: IC50 R. mucilaginosa
Text: as §2, §1

[4] = Cytotoxicity test on Vero cells (WST8/CCK-8 cell viability); assay type: cell-based, African green monkey; details: African green monkey, Vero cells (ATCC CCL-81), Vero cells, mean and 95% confidence interval
Procedure: (§3) African green monkey kidney cells (Vero ATCC CCL-81) were cultured in Eagle’s Minimal Essential Medium (MEM) (Sigma-Aldrich), supplemented with 10% fetal bovine serum (FBS) (Carlo Erba Reagents, Milan, Italy), 100 U/mL penicillin, and 100 µg/mL streptomycin at 37 °C with 5% CO2. For experiments, cells were seeded into 96-well plates at 10^4 cells/well, and incubated at 37 °C for 24 h. Following washes with PBS, cell monolayer was incubated with 100 µL of serially 2-fold dilution of the compound in the range 200–6.25 µM. Both untreated cells and cells incubated with medium containing solvent dilutions were included in each experiment as controls.
(§4) The cell viability was assessed by a WST8-based assay according to the manufacturer’s instructions (CCK-8, Cell Counting Kit-8, Dojindo Molecular Technologies, Rockville, MD, USA). After 72 h of incubation, culture medium was removed from each well, the monolayer was washed with PBS, and 100 µL of fresh medium containing 10 µL of CCK-8 solution were added. Following a 2 h at 37 °C, the absorbance was measured at 450/630 nm; data were calculated as the percentage of the cell viability relative to the untreated controls.

Vero cells (ATCC CCL-81) = test: as above; assay type: cell-based, African green monkey; details: 72 h, up to the highest concentration of 200 μM
Procedure: as §3, §4

C. neoformans = test: In vitro susceptibility testing, C. neoformans clinical isolate; assay type: cell-based; details: Cryptococcus neoformans; clinical isolate; read-out: IC50 C. neoformans
Text: as §2, §1

C. glabrata = test: In vitro susceptibility testing, C. glabrata clinical isolate; assay type: cell-based; details: Nakaseomyces glabratus; clinical isolate; read-out: IC50 C. glabrata
Text: as §2, §1

C. albicans = test: In vitro susceptibility testing, C. albicans clinical isolate; assay type: cell-based; details: Candida albicans; clinical isolate; mean and 95% confidence interval; read-out: IC50 C. albicans
Text: as §2, §1

C. albicans ATCC 10231 [5] = test: Effect on yeast-to-hyphae transition; assay type: cell-based, Candida albicans; details: compound at IC50 value, 2 h
Text: Blastospore and hyphae forms were observed under a light microscope.

Row | SMILES | invasion of Spider medium (filamentation) (C. albicans ATCC 10231 [1]) | IC50 (C. albicans ATCC 10231 [2]; read-out: IC50) | IC50 (C. albicans ATCC 10231 [2]; read-out: IC50 [μg/mL]) | inhibition at 100 µM (C. albicans ATCC 10231 [2]) | IC50 (S. clavata) | reduction of metabolism of sessile cells in mature biofilm (C. albicans ATCC 10231 [3]) | IC50 (C. utilis) | IC50 (C. lusitaniae) | IC50 (C. krusei) | IC50 (C. tropicalis) | IC50 (C. parapsilosis) | IC50 (R. mucilaginosa) | CC50 at 72 h ([4]; read-out: CC50) | CC50 at 72 h ([4]; read-out: CC50 [μg/mL]) | toxicity on Vero cells, in words (Vero cells (ATCC CCL-81)) | IC50 (C. neoformans) | IC50 (C. glabrata) | IC50 (C. albicans) | cell morphology after treatment (C. albicans ATCC 10231 [5])
1 | O=C(/C=C/c1cc(F)cc(F)c1)c1cc(Cl)ccc1O [Compound 5, (E)-1-(5-Chloro-2-hydroxyphenyl)-3-(3,5-difluorophenyl)prop-2-en-1-one] | unable to penetrate the medium | 51.3 µM | 15.1 µg/mL | 62 ± 1.5% | 29.5 µg/mL and 100 µM | < 25% | 29.5 µg/mL and 100 µM | 14.1 µg/mL and 47.9 µM | > 58.9 µg/mL and > 200 µM | > 58.9 µg/mL and > 200 µM | 58.9 µg/mL and 200 µM | 22.7 µg/mL and 76.9 µM | > 200 µM | > 58.9 µg/mL | did not display any toxicity | 5.3 µg/mL and 18 µM | > 58.9 µg/mL and > 200 µM | 29.5 µg/mL and 100 µM | –
2 | C#CCOc1ccc(C(=O)/C=C/c2ccc([N+](=O)[O-])cc2)c(OC)c1 [Compound 14] | – | 39.2 µM | 11.5 µg/mL | 63.6 ± 6.8% | 100 µM and 33.7 µg/mL | – | 33.7 µM and 11.4 µg/mL | 48.8 µM and 14.8 µg/mL | 200 µM and 67.5 µg/mL | 200 µM and 67.5 µg/mL | 100 µM and 33.7 µg/mL | 100 µM and 33.7 µg/mL | > 200 µM | > 58.6 µg/mL | did not display any toxicity | 28.4 µM and 9.6 µg/mL | 200 µM and 67.5 µg/mL | 31.4 µM and 10.6 µg/mL | –
3 | O=C(/C=C/c1cccc(F)c1)c1cc(F)ccc1O [Compound 7, (E)-1-(5-Fluoro-2-hydroxyphenyl)-3-(3-fluorophenyl)prop-2-en-1-one] | unable to penetrate the medium | 53 µM | 13.8 µg/mL | 69 ± 12.4% | 37 µM and 9.6 µg/mL | < 25% | 100 µM and 26 µg/mL | 31.7 µM and 8.2 µg/mL | 100 µM and 26 µg/mL | > 200 µM and > 52 µg/mL | 100 µM and 26 µg/mL | 80 µM and 20.8 µg/mL | 182 µM | 47.3 µg/mL | – | 15.6 µM and 4.1 µg/mL | 100 µM and 26 µg/mL | 32.1 µM and 8.4 µg/mL | mainly formed blastospores, some rare budding cells but no hyphae

Source: article PMC6359675, “Functionalization of the Chalcone Scaffold for the Discovery of Novel Lead Compounds Targeting Fungal Infections” (Molecules, 2019)
